Experimental data reported in patent US10802012B2, “Optical cytometry to determine cell mass changes in response to a biologically active agent” (The Regents of the University of California, priority 2009, dated 2020).

What was measured:
NIH3T3 cells [1] = experiment: Cell morphology in intensity images during cytochalasin treatment; type: cell-based, mouse; details: 1 μM, up to 45 minutes
Experimental: (§1) Cells were prepared for measurement as described above. A continuous infusion of fresh media into the sample chamber, warmed to 37 C and pre-saturated with 5%CO2, was maintained at all times. The rate of infusion was 5 μL/min, equivalent to exchanging the entire volume of the test chamber in 20 minutes. Cells were equilibrated under flow for 45 minutes before measurement. Flow was halted during each measurement cycle, which lasted approximately 200 seconds. The first, a media-only measurement was conducted at 1 hour, immediately followed by introduction of cytochalasin B into the infusing media. Initially, the cytochalasin B was dissolved in DMSO and diluted in DMEM to produce a stock concentration 1000× the working concentration (1 μM or 10 μM). At the appropriate time, the stock solution was introduced into the infusion media reservoir to produce the desired final concentration.

fibroblasts [2] = details: low doses (0.1-1 μM); cited from earlier work
NIH3T3 cells [3] = experiment: Mechanical imaging interferometry (MII) viscoelastic measurement of cells before and after cytochalasin B; type: cell-based, mouse
Experimental: The population measurements of the NIH 3T3 fibroblasts and the HEK 293T […] were conducted over several consecutive days. Both cell types were cultured at the same time on a series of poly-L-lysine coated 0.20×10 mm round glass coverslips, in 1×DMEM with 10% fetal bovine serum in a laboratory incubator under standard cell culture conditions. Preceding measurement, a single round coverslip containing cells would be removed from the culture dish and quickly placed in the microscope test chamber. Microreflectors would be added to media from the original culture dish, which would then be pipetted slowly onto the cells and the sample chamber sealed. Cells were allowed to equilibrate in the test chamber for 30 minutes before measurement. The average radius of the measured microreflectors was 3.79 μm, and the average applied force was 190 pN. The average cell height was 8.1 μm and the average maximum indentation depth per cell was 660 nm.
The three constants for a viscoelastic solid were determined for each measurement by fitting the time-dependent force-displacement curves of the microreflectors to the following equation (see, e.g. Cheng et al., (2005) Mechanics of Materials 37, 213-226):
[formula] Our measurements assumed Poisson's ratio for the cell, v=0.5. Curves were fitted using the Levenberg-Marquardt non-linear least squares procedure (Origin Labs). The z-statistic was used to compare the log-transformed sample means and determine p values. The Bartlett test was used to confirm homogeneity of the compared sample variances.
To remain within the semi-infinite layer assumptions of this model, we present fits only for observations where the minimum cell thickness at the location of the microreflector was 3 μm or greater. A majority of the measurements fit the model elastic constants E1 and E2 well, having a relative standard error of fit <25%. There was larger uncertainty in the viscosity factor, η, with only 30% of the fits having a relative standard error <25%.
as §1

fibroblasts [4] = details: low doses (0.1-1 μM); cited from earlier work; remark: listed apart in the source
fibroblasts [5] = details: low doses (0.1-1 μM); cited from earlier work; remark: listed apart in the source
[6] = NIH3T3 cells, 1 μM, matched individual cell basis
[7] = NIH3T3 cells, FIG. 6B, normal force applied for 100 seconds, before vs after treatment

C=C1[C@@H](C)[C@H]2[C@H](Cc3ccccc3)NC(=O)[C@]23OC(=O)/C=C/[C@H](O)CCC[C@@H](C)C/C=C/[C@H]3[C@@H]1O [cytochalasin B]
change in cell morphology (NIH3T3 cells [1]): only a slight change in cell morphology | changes in the morphology of fibroblasts (fibroblasts [2]): does not produce large changes in the morphology | mean of the log-transformed distribution of E2 (delayed elastic constant) after treatment (NIH3T3 cells [3]; NIH3T3 cells (n=30), 1 μM, before treatment 2.30, p=0.04): 2.02 | mean of the log-transformed distribution of E1 (instantaneous elastic constant) after treatment (NIH3T3 cells [3]; NIH3T3 cells (n=30), 1 μM, before treatment 3.19, p=0.10): 2.92 | mean of the log-transformed viscous constant η after treatment (NIH3T3 cells [3]; NIH3T3 cells (n=30), 1 μM, before treatment 3.39, p=0.47): 3.36 | matched individual cells with E1 lower after treatment (NIH3T3 cells [3]; [6]): 10/13 | matched individual cells with E2 lower after treatment (NIH3T3 cells [3]; [6]): 7/10 | matched individual cells with viscosity η lower after treatment (NIH3T3 cells [3]; [6]): 6/11 | change in viscoelastic behavior, force-displacement curve of probe 1 (NIH3T3 cells [3]; [7]): appears to be unchanged | change in viscoelastic behavior, force-displacement curve of probe 4 (NIH3T3 cells [3]; [7]): change in elastic rebound behavior | change in viscoelastic behavior, force-displacement curves of probes 2 and 3 (NIH3T3 cells [3]; [7]): clear decrease in stiffness | elasticity of treated cells (NIH3T3 cells [3]; NIH3T3 cells, low dose (1 μM)): treated cells were less elastic | change in Young's modulus by AFM indentation (fibroblasts [4]): minimal, if any, measurable change in Young's modulus | cell migration (fibroblasts [5]): inhibit cell migration
